Laboratory results published in US12622915B2, “Methods of treating PDE IV-mediated diseases or conditions” (Vanda Pharmaceuticals Inc., priority 2020, dated 2026).

Target: T1, Phosphodiesterase PDE6 (Bos taurus, UniProt P11541+P23439)
T1 construct: Source: Bovine retinal rod outer segments; from tissue; host or cells: bovine retinal rod outer segments
T1 sequence (P11541 2-856 limits assumed): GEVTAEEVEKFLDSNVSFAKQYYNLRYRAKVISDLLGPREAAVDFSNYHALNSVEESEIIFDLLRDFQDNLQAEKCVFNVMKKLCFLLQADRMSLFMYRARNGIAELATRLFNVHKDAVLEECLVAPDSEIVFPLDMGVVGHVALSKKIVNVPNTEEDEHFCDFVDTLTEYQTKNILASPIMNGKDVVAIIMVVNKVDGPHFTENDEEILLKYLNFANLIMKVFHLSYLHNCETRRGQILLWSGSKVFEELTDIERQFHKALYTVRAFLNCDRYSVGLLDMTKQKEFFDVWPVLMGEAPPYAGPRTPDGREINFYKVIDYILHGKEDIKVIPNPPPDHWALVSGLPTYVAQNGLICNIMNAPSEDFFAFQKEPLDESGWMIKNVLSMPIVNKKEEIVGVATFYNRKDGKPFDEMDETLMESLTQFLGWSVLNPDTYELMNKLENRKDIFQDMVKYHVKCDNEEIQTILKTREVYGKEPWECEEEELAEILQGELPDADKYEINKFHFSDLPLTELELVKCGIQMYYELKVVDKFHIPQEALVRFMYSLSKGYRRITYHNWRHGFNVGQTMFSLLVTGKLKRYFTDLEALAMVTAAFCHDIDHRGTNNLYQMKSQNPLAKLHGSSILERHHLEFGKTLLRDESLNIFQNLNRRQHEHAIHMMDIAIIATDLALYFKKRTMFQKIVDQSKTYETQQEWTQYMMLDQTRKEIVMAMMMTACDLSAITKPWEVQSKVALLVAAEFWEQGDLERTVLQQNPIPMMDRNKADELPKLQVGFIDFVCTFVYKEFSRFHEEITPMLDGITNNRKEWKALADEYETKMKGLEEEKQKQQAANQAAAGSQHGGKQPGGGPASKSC
T1 sequence (P23439 2-850 limits assumed): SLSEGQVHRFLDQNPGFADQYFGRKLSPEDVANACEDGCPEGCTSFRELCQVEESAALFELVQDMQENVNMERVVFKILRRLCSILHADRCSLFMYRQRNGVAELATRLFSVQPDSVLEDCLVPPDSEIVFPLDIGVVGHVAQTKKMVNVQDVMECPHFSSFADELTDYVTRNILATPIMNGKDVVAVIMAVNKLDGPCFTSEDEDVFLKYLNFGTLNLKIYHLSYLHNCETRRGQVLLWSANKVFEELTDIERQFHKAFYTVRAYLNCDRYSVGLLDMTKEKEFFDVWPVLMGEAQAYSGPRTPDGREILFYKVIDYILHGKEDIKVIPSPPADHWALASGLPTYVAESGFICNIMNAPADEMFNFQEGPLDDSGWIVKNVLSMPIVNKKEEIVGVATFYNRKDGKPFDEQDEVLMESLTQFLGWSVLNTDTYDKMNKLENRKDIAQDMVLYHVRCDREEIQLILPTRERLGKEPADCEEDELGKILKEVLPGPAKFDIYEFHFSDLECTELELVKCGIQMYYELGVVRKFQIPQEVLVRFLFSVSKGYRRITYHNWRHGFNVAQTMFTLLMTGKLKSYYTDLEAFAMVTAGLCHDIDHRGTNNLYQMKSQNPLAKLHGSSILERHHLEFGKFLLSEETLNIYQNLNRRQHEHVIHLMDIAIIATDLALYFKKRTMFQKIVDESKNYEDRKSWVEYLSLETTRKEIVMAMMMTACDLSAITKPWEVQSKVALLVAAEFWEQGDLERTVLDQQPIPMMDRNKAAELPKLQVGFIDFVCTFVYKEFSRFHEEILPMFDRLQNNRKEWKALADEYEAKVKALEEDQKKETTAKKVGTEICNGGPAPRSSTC
Experiment: Phosphodiesterase PDE6 enzyme assay
Format: biochemical, bovine
Settings: N=2, Example 3
Excerpt: Reference standards are run as an integral part of each assay to ensure the validity of the results obtained. Reference Compounds: • Phosphodiesterase PDE10A2 Papaverine • Phosphodiesterase PDE11A4 Dipyridamole • Phosphodiesterase PDE1A MMPX • Phosphodiesterase PDE2A EHNA • Phosphodiesterase PDE3A Cilostamide • Phosphodiesterase PDE4A1A Rolipram • Phosphodiesterase PDE4B1 Rolipram • Phosphodiesterase PDE5A Zaprinast • Phosphodiesterase PDE6 Zaprinast • Phosphodiesterase PDE7A IBMX • Phosphodiesterase PDE7B IBMX • Phosphodiesterase PDE8A1 Dipyridamole • Phosphodiesterase PDE9A2 Zaprinast
Phosphodiesterase PDE6: • Source: Bovine retinal rod outer segments • Substrate: 100 μM [^3H]cGMP+cGMP • Vehicle: 1.00% DMSO • Significance Crit.: ≥50% of max stimulation or inhibition • Incubation Buffer: 50 mM Tris-HCl, pH 7.5, 5 mM MgCl2 • Quantitation Method: Quantitation of [^3H]Guanosine • Pre-Incub. […]
IC50 values are determined by a non-linear, least squares regression analysis using MathIQ™ (ID Business Solutions Ltd., UK). Where inhibition constants (Ki) are presented, the Ki values are calculated using the equation of Cheng and Prusoff (Cheng, Y., Prusoff, W. H., Biochem. Pharmacol. 22:3099-3108, 1973) using the observed IC50 of the tested compound, the concentration of radioligand employed in the assay, and the historical values for the KD of the ligand. […]

CNc1nc(Nc2ccccc2)nc(OCC(F)(F)C(F)F)n1 [compound of Formula (I), N^2-methyl-N^4-phenyl-6-(2,2,3,3-tetrafluoropropoxy)-1,3,5-triazine-2,4-diamine]
inhibition at 10 µM: 8%
